{"source": "patent US20210093714A1", "about": "“Combination and method for inhibiting the cancer cells” (NATIONAL TAIWAN UNIVERSITY, priority 2013, published 2021)", "key": {"[1]": {"tested_on": "EGFR", "test": "Western blot of CCN2-induced EGFR degradation", "assay_type": "cell-based, human", "conditions": "CL1-5 with CCN2", "protocol": "(§1) Proteins ([…]) were separated by SDS-PAGE and transferred to a polyvinylidene difluoride membrane (Immobilon-P membrane; Millipore) by electrotransfer. The blot was blocked in a solution of 5% skim milk and 0.1% Tween 20 in PBS. Thereafter, membrane-bound proteins were probed with the following primary antibodies: CCN2, DAPK, phosphorylated ERK, ERK-1, phosphorylated Akt, Akt, TrkA, phosphorylated-Src, Src, b-actin, a-tubulin (Santa Cruz Biotechnology), p-EGFR, and EGFR (Cell Signaling Technology, Danvers, MA, USA). The membrane was washed and then incubated with HRP-conjugated secondary antibodies for 30 min. Enhanced chemiluminescence reagents (Amersham Pharmacia Biotech, Piscataway, N.J., USA) were employed to depict the protein bands on membranes. The light was captured on Kodak X-Omat Blue autoradiography film (PerkinElmer Life Sciences, Boston, Mass., USA).\nThis embodiment focuses on whether CCN2 interacts with EGFR. At first, the effect of MG132 and CCN2 on the degradation of EGFR in the lung adenocarcinoma cell line, CL1-5, and the effect of cycloheximide and CCN2 on the degradation of EGFR in the lung adenocarcinoma cell line, CL1-5,were observed by western blot analysis, the results shown in FIGS. 4A and 4B. […] On the other hand, cycloheximide can gradually promote CCN2-induced EGFR degradation and attenuated the protein signal intensity(Fold) of EGFR (attenuated from 0.74 to 0.39)(as shown in FIG. 4B) with increasing time (0 hours, 12 hours, 24 hours, 48 hours). Thus, CCN2 can destabilize EGFR and enhance the degradation of EGFR."}, "[2]": {"tested_on": "DAPK", "test": "Western blot of DAPK expression", "assay_type": "cell-based, human", "conditions": "CL1-5; PD98059 0, 10, 20 μM; FIG. 6E", "protocol": "as §1\nThis embodiment focuses on the downstream signaling in CCN2-induced anoikis. At first, the effect of DAPK which can up-regulate CCN2 played on CCN2 induced anoikis and metastasis inhibition of lung adenocarcinoma cell lineswas observed by RT-PCR, dual luciferase reporter assay and western blot analysis, the results shown in FIGS. 6A to 6C. […] In addition, in the lung adenocarcinoma cell line, CL1-0/siCCN2, DAPK expression is suppressed, and DAPK expression also be suppressed with increasing dose (0 μg, 1μg, 3μg), (as shown on the top right in the FIG. 6C). Therefore, CCN2 induced DAPK expression in time- and dose-dependent manners."}, "[3]": {"tested_on": "ERK", "test": "Western blot of ERK phosphorylation", "assay_type": "cell-based, human", "conditions": "CL1-5; PD98059 0, 10, 20 μM; FIG. 6E", "protocol": "as §1\nThis embodiment focuses on the effect of CCN2 on the EGFR-induced signaling pathways. At first, the effect of exogenous CCN2(rCCN2) on the MAPK/AKT signaling pathways in the lung adenocarcinoma cell lines, CL1-5, A549 and CL1-0/siCCN2 was observed by western blot analysis, the results shown in FIG. 3A."}, "[4]": {"tested_on": "CCN2 transfected lung adenocarcinoma cell line, CL1-5", "test": "MTT Assay, chemotherapy drugs on CCN2 transfected CL1-5", "assay_type": "cell-based, human", "conditions": "suspended CCN2 transfected CL1-5; increasing dose 0 to 10 μM; 24 hrs; FIG. 8A", "protocol": "First, the effect of CCN2 on the suspended lung adenocarcinoma cell line, CL1-5, treated with chemotherapy was observed by MTT Assay, the results shown in FIG. 8A (Cells were treated for 24 hrs, *P<0.05, **P<0.01). […] In this embodiment, paclitaxel treatment with a concentration between 1 μM and 10 μM is perferred, and 10 μM is most preferable; doxorubicin treatment with a concentration between 0.5 μM and 10 μM is perferred, and 5 μM is most preferable."}, "[5]": {"tested_on": "EGFR", "test": "Immunoprecipitation and in vitro binding assay of CCN2 and EGFR", "design": "species or system human", "conditions": "A549; rEGF 20 ng/mL for 24 h; rCCN2 100 ng/mL; FIG. 2C", "protocol": "CCN2 transfectants were seeded overnight and incubated in serum-free media for 24 h. For immunoprecipitations, cells were lysed in an RIPA buffer (150 mM NaCl, 50 mM Tris-base, 5 mM EDTA, 1% NP-40, and 0.25% deoxycholate; pH 7.4). Protein concentrations were determined using the BCA protein assay kit (Pierce, Rockford, Ill., USA). Lysate was incubated for 2 h at 4[…] with gentle rotation with rabbit polyclonal antibodies for human EGFR, CCN2, or Src immobilized onto protein A—sepharose beads (Santa Cruz Biotechnology, Santa Cruz, Calif., USA). Beads were washed twice with an IP buffer (137 mM NaCl, 2.7 mM KCl, 1 mM MgCl2, 1 mM CaCl2, 1% NP-40, 10% glycerol, 1 mg/ml bovine serum albumin, and 20 mM Tris; pH 8.0), boiled in a sodium dodecyl sulfate-polyacrylamide gel electrophoresis (SDS-PAGE) sample buffer, and centrifuged (12000×g, 4° C. for 15 min).\nThe recombinant proteins rCCN2 (BioVendor Com. Heidelberg, Germany), rEGFR, and rEGF (R&D Techne Corporation) ([…]) were added in binding buffer (50 mM sodium phosphate, pH 7.5, 500 mM NaCl, and I% Nonidet P-40) and incubated with gentle rotation at 4° C. for 2 h. Thereafter, crosslinks were reversed by boiling in an SDS-PAGE sample buffer (containing 0.1M dithiothreitol (DTT)) before loading on SDS-PAGE gels for immunoblotting analysis. […]"}, "[6]": {"target": "T1, EGFR (Homo sapiens, UniProt P00533)", "T1 construct": "endogenous in cells; host or cells: CL1-5 and A549 human lung adenocarcinoma cell lines", "test": "FACS and western blot, CCN2 domain responsible for EGFR binding", "assay_type": "cell-based", "conditions": "suspended A549; rCT 100 ng/mL; FIG. 2G", "protocol": "After washing, cells were stained with an FITC-labelled goat anti-rabbit secondary antibody (Santa Cruz Biotechnology) for 30 min in the dark. Analysis was then conducted with an FACS Calibur cytometer (Collaborative Biomedical, BD Biosciences)."}}, "note": "Residues, ends and D or L forms follow the SMILES beside them. *: point of attachment. Cbz = O=C(OCc1ccccc1)*", "data": [{"molecule": "CC(C)C[C@@H](C=O)NC(=O)[C@H](CC(C)C)NC(=O)[C@H](CC(C)C)NC(=O)OCc1ccccc1", "note": "[MG132] (Cbz-Leu-Leu-Leu-aldehyde)", "values": [{"measurement": "protein signal intensity(Fold) of EGFR", "setting": "[1]; MG132, end of time course (24 hours), FIG. 4A", "result": 1.41, "unit": "Fold"}, {"measurement": "protein signal intensity(Fold) of EGFR", "setting": "[1]; MG132, start of time course (0 hours), FIG. 4A", "result": 0.04, "unit": "Fold"}]}, {"molecule": "COc1cccc(-c2cc(=O)c3ccccc3o2)c1N", "note": "[PD98059, reference compound]", "values": [{"measurement": "DAPK expression", "setting": "[2]", "result": "gradually increase the DAPK expression"}, {"measurement": "p-ERK", "setting": "[3]", "result": "gradually inhibit p-ERK"}]}, {"molecule": "C[C@@H]1C[C@@H]([C@H](O)CC2CC(=O)NC(=O)C2)C(=O)[C@@H](C)C1", "note": "[cycloheximide]", "values": [{"measurement": "protein signal intensity(Fold) of EGFR", "setting": "[1]; cycloheximide, end of time course (48 hours), FIG. 4B", "result": 0.39, "unit": "Fold"}, {"measurement": "protein signal intensity(Fold) of EGFR", "setting": "[1]; cycloheximide, start of time course (0 hours), FIG. 4B", "result": 0.74, "unit": "Fold"}]}, {"molecule": "COc1cccc2c1C(=O)c1c(O)c3c(c(O)c1C2=O)C[C@@](O)(C(=O)CO)C[C@@H]3O[C@H]1C[C@H](N)[C@H](O)[C@H](C)O1", "note": "[doxorubicin]", "values": [{"measurement": "cell apoptosis", "setting": "[4]", "result": "increase cell apoptosis more significantly"}]}, {"molecule": "CC(=O)O[C@H]1C(=O)[C@@]2(C)[C@H]([C@H](OC(=O)c3ccccc3)[C@]3(O)C[C@H](OC(=O)[C@H](O)[C@@H](NC(=O)c4ccccc4)c4ccccc4)C(C)=C1C3(C)C)[C@]1(OC(C)=O)CO[C@@H]1C[C@@H]2O", "note": "[paclitaxel]", "values": [{"measurement": "cell apoptosis", "setting": "[4]", "result": "increase cell apoptosis more significantly"}]}, {"molecule": "EGF: EGFR ligand, recombinant protein (R&D Techne Corporation) [reference compound]", "values": [{"measurement": "effect on physical association between CCN2 and EGFR", "setting": "[5]", "result": "do not block the physically association between CCN2 and EGFR"}]}, {"molecule": "rCT: carboxyl-terminal cystine knot (CT) domain of CCN2, CCN2 functional fragment (protein) KGKKCIRTPKISKPIKFELSGCTSMKTYRAKFCGVCTDGRCCTPHRTTTLPVEFKCPDGEVMKKNMMFIKTCACHYNCPGDNDIFESLYYRKMYGDMA", "values": [{"measurement": "association of CT-domain of CCN2 with EGFR", "setting": "[6]", "result": "has association relationship with EGFR"}]}]}
